The record followed here is US20250026787A1, “PEPTIDES AND METHODS FOR REDUCING SKIN PIGMENTATION” (Glo Pharma, Inc., priority 2021, published 2025).

For orientation: IC50 means the point on the concentration scale where inhibition reaches its midpoint.

In the test the target is T1, Human recombinant melanocortin MCI receptors (Homo sapiens, UniProt Q01726).
T1 construct: purchased Eurofins Discovery Item 251100; host or cells: CHO-K1
Put plainly: MC1 Human Melanocortin GPCR Binding (Agonist Radioligand) competition assay (Eurofins Item 251100). As to the method: The binding of Group A MCIR peptide antagonists of the disclosure was evaluated in a competition assay (MC1 Human Melanocortin GPCR Binding (Agonist Radioligand) Assay, Item 251100, Eurofins Discovery). […] Human recombinant melanocortin MCI receptors were expressed in CHO-K1 cells in modified HEPES-KOH buffer pH 7.0. […] Non-specific binding was estimated in the presence of 1 μM NDP-α-MSH. Receptors were filtered and washed, and the filters counted to determine [^125I] NDP-α-MSH specifically bound. Peptide antagonists of the disclosure having amino acid sequences as set forth in SEQ ID NOS: 11, 16, 25, 27, 32, 35, and 40 (each having a C-terminal —NH2) were screened at five concentrations, as well as a positive control, SEQ ID NO: 1 (Melanostatine-5). Inhibition curves were obtained by determining the reduction of bound α-MSH in the presence of an amount of, and/or by increasing amounts of, each peptide antagonist. Non-specific binding of peptide was estimated separately in the presence of a vast excess (1 mM) of unlabeled α-MSH, which occupies all the available receptor binding sites. Based on the competitive binding curve, the IC50 values were determined (Eurofins or AAT Bioquest IC50 calculator). […] The binding of Group A MCIR peptide antagonists of the disclosure was evaluated in a competition assay (MC1 Human Melanocortin GPCR Binding (Agonist Radioligand) Assay, Item 251100, Eurofins Discovery). […] Human recombinant melanocortin MCI receptors were expressed in CHO-K1 cells in modified HEPES-KOH buffer pH 7.0. […] Non-specific binding was estimated in the presence of 1 μM NDP-α-MSH. Receptors were filtered and washed, and the filters counted to determine [^125I]NDP-α-MSH specifically bound. Peptide antagonists of the disclosure having amino acid sequences as set forth in SEQ ID NOS: 11, 16, 25, 27, 32, 35, and 40 were screened at five concentrations. Inhibition curves were obtained by determining the reduction of bound α-MSH in the presence of an amount of, and/or by increasing amounts of, each peptide antagonist. […] Based on the percent inhibition relative to the agonist the IC50 values were determined (Eurofins or AAT Bioquest IC50 calculator).

Setting [1] is: Example 7, Table 7, binned, screened at five concentrations, read-out: IC50.
Where [2] appears, read: stated as 'in some embodiments', broadest range, read-out: IC50 value using a competition assay.

Where two headings read alike, the source gives them in different places. Square brackets hold non-standard residues; d marks the D form. Peptide text beside a SMILES is read from it.

T1 sequence (Q01726 whole entry): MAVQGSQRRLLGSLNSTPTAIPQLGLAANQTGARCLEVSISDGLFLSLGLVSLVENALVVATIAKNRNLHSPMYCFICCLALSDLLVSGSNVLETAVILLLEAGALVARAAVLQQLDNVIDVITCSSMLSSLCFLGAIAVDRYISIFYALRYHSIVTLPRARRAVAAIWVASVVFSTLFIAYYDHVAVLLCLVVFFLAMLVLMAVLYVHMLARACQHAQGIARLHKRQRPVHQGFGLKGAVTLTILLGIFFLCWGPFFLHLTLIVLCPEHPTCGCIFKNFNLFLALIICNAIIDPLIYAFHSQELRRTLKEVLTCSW

As to `CSCC[C@H](N)C(=O)N1CCC[C@H]1C(=O)N[C@H](Cc1ccccc1)C(=O)N[C@@H](CCCNC(=N)N)C(=O)N[C@H](Cc1c[nH]c2ccccc12)C(=O)N[C@@H](Cc1ccccc1)C(=O)N[C@@H](CCCCN)C(=O)N1CCC[C@H]1C(=O)N[C@H](C(N)=O)C(C)C` [SEQ ID NO: 1, Met-Pro-D-Phe-Arg-D-Trp-Phe-Lys-Pro-Val, reference compound] (H-MP[dF]R[dW]FKPV-NH2), the IC50 (IC50, Example 7, Table 7, binned, screened at five concentrations) was under 200 nM and the IC50 (IC50 value, Example 1, competition with 0.04 nM [125I]NDP-α-MSH, 120 minutes at 37° C) came out at 120 nM.

As for `CC(C)[C@H](NC(=O)[C@@H]1CCCN1C(=O)[C@H](CCCCN)NC(=O)[C@H](Cc1ccccc1)NC(=O)[C@@H](Cc1c[nH]c2ccccc12)NC(=O)[C@H](CCCNC(=N)N)NC(=O)[C@@H](Cc1ccccc1)NC(=O)[C@@H](NC(=O)[C@H](C)N)C(C)C)C(N)=O` [SEQ ID NO: 11, Ala-Val-dPhe-Arg-dTrp-Phe-Lys-Pro-Val-NH2] (H-AV[dF]R[dW]FKPV-NH2), the IC50 under setting [1] was 200 to 500 nM.

With `CC(C)[C@H](NC(=O)[C@@H]1CCCN1C(=O)[C@H](CCCCN)NC(=O)[C@H](Cc1ccccc1)NC(=O)[C@@H](Cc1c[nH]c2ccccc12)NC(=O)[C@H](CCCNC(=N)N)NC(=O)[C@@H](Cc1ccccc1)NC(=O)[C@@H](NC(=O)[C@@H](N)Cc1ccccc1)C(C)C)C(N)=O` [SEQ ID NO: 16, Phe-Val-dPhe-Arg-dTrp-Phe-Lys-Pro-Val-NH2] (H-FV[dF]R[dW]FKPV-NH2), the IC50 under setting [1] is under 200 nM and the 50% inhibitory concentration (IC50) under setting [2] was 70 to 160 nM.

On to `CC(C)[C@H](NC(=O)[C@@H]1CCCN1C(=O)[C@H](CCCCN)NC(=O)[C@H](Cc1ccccc1)NC(=O)[C@@H](Cc1c[nH]c2ccccc12)NC(=O)[C@H](CCCNC(=N)N)NC(=O)[C@@H](Cc1ccccc1)NC(=O)[C@@H](NC(=O)[C@@H](N)CCC(=O)O)C(C)C)C(N)=O` [SEQ ID NO: 25, Glu-Val-dPhe-Arg-dTrp-Phe-Lys-Pro-Val-NH2] (H-EV[dF]R[dW]FKPV-NH2), for which, under setting [1], the IC50 was over 500 nM.

In the case of `CSCC[C@H](N)C(=O)N[C@H](C(=O)N[C@@H](Cc1ccccc1)C(=O)N[C@@H](CCCNC(=N)N)C(=O)N[C@H](Cc1c[nH]c2ccccc12)C(=O)N[C@@H](Cc1ccccc1)C(=O)N[C@@H](CCCCN)C(=O)N1CCC[C@H]1C(=O)N[C@H](C(N)=O)C(C)C)C(C)C` [SEQ ID NO: 27, Met-Val-Phe-Arg-dTrp-Phe-Lys-Pro-Val-NH2] (H-MVFR[dW]FKPV-NH2), the half-inhibitory concentration (IC50) under setting [1] is over 500 nM.

With `CC[C@H](C)[C@H](N)C(=O)N[C@@H](Cc1ccccc1)C(=O)N[C@@H](CCCNC(=N)N)C(=O)N[C@H](Cc1c[nH]c2ccccc12)C(=O)N[C@@H](Cc1ccccc1)C(=O)N[C@@H](CCCCN)C(=O)N1CCC[C@H]1C(=O)N[C@H](C(N)=O)C(C)C` [SEQ ID NO: 32, Ile-Phe-Arg-dTrp-Phe-Lys-Pro-Val-NH2] (H-IFR[dW]FKPV-NH2), the 50% inhibitory concentration (IC50) runs as follows: under setting [1], under 200 nM; under setting [2], 70 to 160 nM.

Take `CSCC[C@H](N)C(=O)N[C@H](C(=O)N[C@H](Cc1ccccc1)C(=O)N[C@H](CCCNC(=N)N)C(=O)N[C@H](Cc1c[nH]c2ccccc12)C(=O)N[C@@H](Cc1ccccc1)C(=O)N[C@@H](CCCCN)C(=O)N1CCC[C@H]1C(=O)N[C@H](C(N)=O)C(C)C)C(C)C` [SEQ ID NO: 35, Met-Val-dPhe-dArg-dTrp-Phe-Lys-Pro-Val-NH2] (H-MV[dF][dR][dW]FKPV-NH2): the concentration for half-maximal inhibition (IC50) under setting [1] is over 500 nM.

Take `CC(C)C[C@@H](NC(=O)[C@H](C)N)C(=O)N[C@H](Cc1ccccc1)C(=O)N[C@@H](CCCNC(=N)N)C(=O)N[C@H](Cc1c[nH]c2ccccc12)C(=O)N[C@@H](Cc1ccccc1)C(=O)N[C@@H](CCCCN)C(=O)N1CCC[C@H]1C(=O)N[C@H](C(N)=O)C(C)C` [SEQ ID NO: 40, Ala-dLeu-dPhe-Arg-dTrp-Phe-Lys-Pro-Val-NH2] (H-A[dL][dF]R[dW]FKPV-NH2): the IC50 under setting [1] was over 500 nM.
